Results as given in ChEMBL document CHEMBL4038279, “Design and characterization of opioid ligands based on cycle-in-macrocycle scaffold” (Bioorg Med Chem, 2017).
Where a SMILES comes first, the peptide text is derived from it. Bridges are numbered along the chain shown (N, C = ends). [ ]: non-standard residue; d: D form.

Assays:
[1] = biological target: Mu-type opioid receptor (Homo sapiens, UniProt P35372); assay: Displacement of [3H]DAMGO from recombinant human mu opioid receptor expressed in CHO cell membranes after 120 mins by liquid scintillation counter analysis
Chain of Mu-type opioid receptor (P35372 whole entry): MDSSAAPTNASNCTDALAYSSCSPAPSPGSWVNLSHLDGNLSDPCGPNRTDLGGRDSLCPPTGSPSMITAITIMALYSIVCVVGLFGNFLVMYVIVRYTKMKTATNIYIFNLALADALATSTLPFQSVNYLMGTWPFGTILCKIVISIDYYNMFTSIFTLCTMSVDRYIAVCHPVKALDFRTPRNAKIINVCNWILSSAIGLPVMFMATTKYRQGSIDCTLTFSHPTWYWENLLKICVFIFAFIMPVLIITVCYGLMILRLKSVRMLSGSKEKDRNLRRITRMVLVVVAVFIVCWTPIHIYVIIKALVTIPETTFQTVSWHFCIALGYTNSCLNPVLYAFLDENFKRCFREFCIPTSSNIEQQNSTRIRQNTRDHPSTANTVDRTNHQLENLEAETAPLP

[2] = biological target: Delta-type opioid receptor (Homo sapiens, UniProt P41143); assay: Displacement of [3H]deltorphin-2 from recombinant human delta opioid receptor expressed in CHO cell membranes after 120 mins by liquid scintillation counter analysis
Chain of Delta-type opioid receptor (P41143 whole entry): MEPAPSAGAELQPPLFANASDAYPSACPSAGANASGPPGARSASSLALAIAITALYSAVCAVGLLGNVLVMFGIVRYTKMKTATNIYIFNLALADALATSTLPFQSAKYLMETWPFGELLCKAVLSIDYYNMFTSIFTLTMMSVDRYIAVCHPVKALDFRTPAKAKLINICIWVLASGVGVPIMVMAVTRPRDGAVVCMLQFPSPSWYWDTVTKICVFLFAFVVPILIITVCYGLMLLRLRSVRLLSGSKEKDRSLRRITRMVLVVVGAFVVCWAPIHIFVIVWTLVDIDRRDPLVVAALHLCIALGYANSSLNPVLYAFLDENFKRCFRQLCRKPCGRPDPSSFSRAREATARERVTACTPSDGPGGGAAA

[3] = biological target: Kappa-type opioid receptor (Homo sapiens, UniProt P41145); assay: Displacement of [3H]U-69593 from recombinant human kappa opioid receptor expressed in CHO cell membranes after 120 mins by liquid scintillation counter analysis
Chain of Kappa-type opioid receptor (P41145 whole entry): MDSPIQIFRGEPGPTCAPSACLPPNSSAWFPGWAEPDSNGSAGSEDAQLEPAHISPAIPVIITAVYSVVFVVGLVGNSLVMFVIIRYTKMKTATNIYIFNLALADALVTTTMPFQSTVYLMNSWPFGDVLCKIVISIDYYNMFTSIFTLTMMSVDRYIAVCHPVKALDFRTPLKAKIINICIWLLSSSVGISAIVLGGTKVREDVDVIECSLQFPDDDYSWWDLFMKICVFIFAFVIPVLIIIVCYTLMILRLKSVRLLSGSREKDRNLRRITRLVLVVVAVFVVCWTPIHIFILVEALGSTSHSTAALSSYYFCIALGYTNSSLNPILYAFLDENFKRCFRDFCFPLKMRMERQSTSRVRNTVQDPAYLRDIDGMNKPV

**Q.** How did the Ki [1] turn out when `NC(=O)[C@@H]1CC(=O)NCCCC[C@@H](NC(=O)[C@@H](N)Cc2ccc(O)cc2)C(=O)N[C@@H](Cc2ccccc2)C(=O)N2CCCC[C@H]2C(=O)N1` was run?
**A.** Its Ki is 3.16 nM.

**Q.** What about the Ki [2] of the same molecule?
**A.** Its Ki is 49.6 nM.

**Q.** And the Ki [3]?
**A.** The Ki was 6720 nM.

**Q.** Which Ki [1] does the source give for `NC(=O)[C@@H]1CC(=O)NCCCC[C@@H](NC(=O)[C@@H](N)Cc2ccc(O)cc2)C(=O)N[C@@H](Cc2ccccc2)C(=O)N[C@@H](Cc2ccccc2)C(=O)N1` (H-Y[dK]FFD-NH2; lactam 2-5) here?
**A.** The Ki was 0.56 nM.

**Q.** What about the Ki [2] of the same molecule?
**A.** Its Ki is 279 nM.

**Q.** And the Ki [3]?
**A.** The Ki was 2.36 nM.

**Q.** What does the source list for `NC(=O)[C@@H]1CC(=O)NCCCC[C@@H](NC(=O)[C@@H](N)Cc2ccc(O)cc2)C(=O)N[C@@H](Cc2ccccc2)C(=O)N2CCC[C@H]2C(=O)N1`?
**A.** Ki [1]: 0.46 nM; Ki [2]: 85.5 nM; Ki [3]: 884 nM

**Q.** Which results are given for `NC(=O)[C@@H]1CC(=O)NCCCC[C@@H](NC(=O)[C@@H](N)Cc2ccc(O)cc2)C(=O)N[C@@H](Cc2ccccc2)C(=O)N2CCC[C@H](C2)C(=O)N1`?
**A.** Ki [1]: 0.9 nM; Ki [2]: 67 nM; Ki [3]: 4620 nM

**Q.** Which Ki [1] does the source give for `NC(=O)[C@@H]1CC(=O)NCCCC[C@@H](NC(=O)[C@@H](N)Cc2ccc(O)cc2)C(=O)N[C@@H](Cc2ccccc2)C(=O)N2CCC(CC2)C(=O)N1` here?
**A.** Its Ki is 1.15 nM.

**Q.** And the Ki [2]?
**A.** Its Ki is 76.7 nM.

**Q.** And the Ki [3]?
**A.** Its Ki is 5460 nM.
